{
  "source": "patent US11427601B1",
  "about": "“Inhibitors of KEAP1-Nrf2 protein-protein interaction” (Janssen Pharmaceutica NV, priority 2018, dated 2022)",
  "data": [
    {"molecular_target": "Kelch domain of human KEAP 1 (321-624 aa) (Homo sapiens (Human), UniProt Q14145)", "sequence (Q14145 321-624)": "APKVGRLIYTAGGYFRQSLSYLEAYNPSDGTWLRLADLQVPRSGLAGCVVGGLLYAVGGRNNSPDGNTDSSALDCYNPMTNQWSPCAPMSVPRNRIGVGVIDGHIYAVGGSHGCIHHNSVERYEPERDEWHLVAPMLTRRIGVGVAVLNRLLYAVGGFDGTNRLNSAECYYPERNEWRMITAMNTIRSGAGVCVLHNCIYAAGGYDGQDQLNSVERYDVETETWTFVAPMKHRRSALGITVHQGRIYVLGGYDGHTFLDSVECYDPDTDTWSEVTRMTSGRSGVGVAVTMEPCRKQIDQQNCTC", "assay": "KEAP1 KELCH ThermoFluor binding assay", "settings": "KEAP Kelch 1.1 μM, pH 7.0, average of results obtained, read-out: Tf Kd", "units": {"Kd": "nM"}, "from_the_text": "The shift in the melting point described as a ΔTm is proportional to the concentration and affinity of the ligand. The compound potency may be compared as a rank order of either ΔTm values at a single compound concentration or in terms of KD values, estimated from concentration response curves.\nThe protein was expressed in E. coli with 6His tag that was cleaved prior to receipt for use.\nProtein (KEAP Kelch) and compound solutions were dispensed into black 384-well polypropylene PCR microplates (Abgene) and overlayed with silicone oil (1 μL, Fluka, type DC 200) to prevent evaporation.", "values": [
      {"compound": "CCn1nnc2c(C)c(C(CC(=O)O)c3ccc(C)c(CN4CC5(COC5)Oc5ccccc5S4(=O)=O)n3)ccc21", "note": "(racemic) [Example 237, (R/S)-3-(6-((1,1-Dioxidospiro[benzo[b][1,4,5]oxathiazepine-4,3′-oxetan]-2(3H)-yl)methyl)-5-methylpyridin-2-yl)-3-(1-ethyl-4-methyl-1H-benzo[d][1,2,3]triazol-5-yl)propanoic acid]", "Kd": 1.5},
      {"compound": "Cc1ccc(C(c2ccn3c(C(F)(F)F)nnc3c2C)C(C)C(=O)O)cc1CN1C[C@@H]2CCCCN2c2ncccc2S1(=O)=O", "note": "(stereo in doubt) [Example 129, 3-(3-(((*S)-5,5-Dioxido-7,7a,8,9,10,11-hexahydro-6H-dipyrido[2,1-d:2′,3′-f][1,2,5]thiadiazepin-6-yl)methyl)-4-methylphenyl)-2-methyl-3-(8-methyl-3-(trifluoromethyl)-[1,2,4]triazolo[4,3-a]pyridine-7-yl)propanoic acid]", "Kd": "< 1"}
    ]},
    {"system": "NrF2 activation of the ARE (Glo-Response ARE-luc2P HEK293 cell line)", "assay": "ARE luciferase reporter assay in HEK293 cells", "type": "cell-based", "settings": "24 hours, average of results obtained", "units": {"EC50": "nM"}, "method": "The ARE assay utilizes a luciferase reporter cell line where the signal is proportional to NrF2 activation of the ARE. The cell line is commercially available from Promega and was prepared by stably transfecting HEK293 cells with a vector (pGL4.11) which contains the ARE response element upstream of a minimal promoter. The promoter drives expression of luc2 firefly luciferase gene. Upon disruption of KEAP1-Nrf2 binding by compound, Nrf2 translocates into the nucleus where it binds to the ARE and activates transcription of luciferase.\nThe materials used in this ARE assay are as follows: Glo-Response ARE-luc2P HEK293 cell line and One-Glo Luciferase Assay System were purchased from Promega (Madison, Wis.). Dulbecco's Modified Eagle medium ((DMEM), low glucose, GlutaMAX, pyruvate), fetal bovine serum (certified, heat inactivated), hygromycin B, Dulbecco's phosphate-buffered saline were purchased from Life Technologies (Grand Island, N.Y.). Penicillin, streptomycin solution (100×) and 0.05% trypsin-EDTA were purchased from Corning (Manassas, Va.). DMSO was purchased from EMD Millipore.\nThe ARE assay protocol is as follows: cells were maintained in growth medium (DMEM +10% FBS, 200 μg/mL hygromycin B, p-s) between 20-90% confluency by splitting twice per week. One day before the assay, cells were trypsinized, counted to determine viable cell count, and re-suspended in assay medium (DMEM +10% FBS, p-s) at 250,000 cells/mL. […] 100% DMSO was used as the low control. A 11-point dose series of the control compound was included on every plate. Compounds were spotted to an intermediate plate (Greiner # 781280 V-bottom 384 well plate) using the Echo acoustic dispenser (Labscyte San Jose, Calif.). Spot size was 240 nL.\nOn the day of the assay, 60 mL per well of assay medium was added to the pre-spotted plate to make 2X compound stocks using the Combi (Thermo Waltham, Mass.). Compound and medium were mixed on the Janus and 20 mL of 2× compound stock was added to the cell plate which already contained 20 mL of assay medium from cell plating. […] The plates were returned to the tissue culture incubator for 24 hours.\nThe next day, luciferase activity was measured according to the manufacturer's protocol for One-Glo luciferase reagent. The plates were removed from the incubator and allowed to equilibrate to room temperature for 30 min. Forty microliters of One-Glo reagent (equilibrated to room temperature) was added per well using the Combi. The plates were mixed on an orbital shaker for 3 min. Luminescence was read on the BMG Pherastar multiplate reader (Cary, N.C.) using the luminescence protocol (1 sec interval).\nThe dose-response data were analyzed in Genedata Screener using 4PL nonlinear regression model. Raw luminescence counts as well as normalized values were used for data analysis.", "values": [
      {"compound": "Cc1ccc([C@H](CC(=O)O)c2ccc3c(nnn3CC3CC3)c2C(F)F)cc1CN1C[C@@H]2CCCCN2c2ncccc2S1(=O)=O", "note": "(relative stereo) [Example 172, (*S)-3-(1-(Cyclopropylmethyl)-4-(difluoromethyl)-1H-benzo[d][1,2,3]triazol-5-yl)-3-(3-(((*S)-5,5-dioxido-7,7a,8,9,10,11-hexahydro-6H-dipyrido[2,1-d:2′,3′-f][1,2,5]thiadiazepin-6-yl)methyl)-4-methylphenyl)propanoic acid]", "EC50": 19},
      {"compound": "CCc1nnc2c(C)c([C@H](CC(=O)O)c3ccc(C)c(CN4C[C@H]5CCCN5c5ncccc5S4(=O)=O)c3)ccn12", "note": "(relative stereo) [Example 283, (*R)-3-(3-(((R)-5,5-dioxido-7a,8,9,10-tetrahydropyrido[2,3-f]pyrrolo[2,1-d][1,2,5]thiadiazepin-6(7H)-yl)methyl)-4-methylphenyl)-3-(3-ethyl-8-methyl-[1,2,4]triazolo[4,3-a]pyridin-7-yl)propanoic acid]", "EC50": 4170},
      {"compound": "Cc1cnc2c(c1)S(=O)(=O)N(Cc1cc([C@H](CC(=O)O)c3ccn4c(C(F)(F)F)nnc4c3C)ccc1C)C[C@@H]1CCCCN21", "note": "(relative stereo) [Example 307, (*S)-3-(4-methyl-3-(((*S)-3-methyl-5,5-dioxido-7,7a,8,9,10,11-hexahydro-6H-dipyrido[2,1-d:2′,3′-f][1,2,5]thiadiazepin-6-yl)methyl)phenyl)-3-(8-methyl-3-(trifluoromethyl)-[1,2,4]triazolo[4,3-a]pyridin-7-yl)propanoic acid]", "EC50": 2},
      {"compound": "Cc1ccc([C@H](c2ccc3c(nnn3C3CC3)c2C)C(C)(C)C(=O)O)cc1CN1CC2(CC2)Oc2nc(N[C@@H](C)CN3CCCCC3)c(C)cc2S1(=O)=O", "note": "(relative stereo) [Example 660, (*R)-3-(1-Cyclopropyl-4-methyl-1H-benzo[d][1,2,3]triazol-5-yl)-2,2-dimethyl-3-(4-methyl-3-((8′-methyl-1′,1′-dioxido-7′-(((S)-1-(piperidin-1-yl)propan-2-yl)amino)spiro[cyclopropane-1,4′-pyrido[2,3-b][1,4,5]oxathiazepin]-2′(3′H)-yl)methyl)phenyl)propanoic acid]", "EC50": 235},
      {"compound": "Cc1ccc([C@H](CC(=O)O)c2ccn3c(C(F)(F)F)nnc3c2C)cc1CN1CC2(COC2)Oc2ccc(F)cc2S1(=O)=O", "note": "(single isomer, unassigned) [Example 99]", "EC50": 5.8},
      {"compound": "Cc1ccc([C@@H](c2ccn3c(C(F)(F)F)nnc3c2C)C(C)(C)C(=O)O)cc1CN1CC2(CC2)Oc2nc(OCCN3CCCC3)ccc2S1(=O)=O", "note": "(single isomer, unassigned) [Example 598, (*S)-3-(3-((1′,1′-dioxido-7′-(2-(pyrrolidine-1-yl)ethoxy)spiro[cyclopropane-1,4′-pyrido[2,3-b][1,4,5]oxathiazepin]-2′(3′H)-yl)methyl)-4-methylphenyl)-2,2-dimethyl-3-(8-methyl-3-(trifluoromethyl)-[1,2,4]triazolo[4,3-a]pyridine-7-yl)propanoic acid]", "EC50": 8.85},
      {"compound": "(*S)-3-(3-((7′-(3-((2-(2-aminoethoxy)ethyl)amino)-3-oxopropyl)-1′,1′-dioxido-2,3,5,6-tetrahydrospiro[pyran-4,4′-pyrido[2,3-b][1,4,5]oxathiazepin]-2′(3′H)-yl)methyl)-4-methylphenyl)-2,2-dimethyl-3-(8-methyl-3-(trifluoromethyl)-[1,2,4]triazolo[4,3-a]pyridin-7-yl)propanoic acid [Example 345]", "EC50": "> 20"}
    ]},
    {"system": "NrF2 activation of the ARE (Glo-Response ARE-luc2P HEK293 cell line)", "assay": "ARE luciferase reporter assay in HEK293 cells", "type": "cell-based", "settings": "Homo sapiens, HEK293, 24 h, average of results obtained", "units": {"EC50": "nM"}, "values": [
      {"compound": "Cc1ccc([C@H](c2cc(C)n3c(C(F)(F)F)nnc3c2C)C(C)C(=O)O)cc1CN1C[C@@H]2CCCCN2c2ncccc2S1(=O)=O", "note": "(relative stereo) [Example 133, (3*R)-3-(5,8-Dimethyl-3)-(trifluoromethyl)-[1,2,4-triazolo[4,3-a]pyridine-7-yl)-3-(3-((*S)-5,5-dioxido-7,7a,8,9,10,11-hexahydro-6H-dipyrido[2,1-d:2′,3′-f][1,2,5]thiadiazepin-6-yl)methyl)-4-methylphenyl)-2-methylpropanoic acid]", "EC50": 2},
      {"compound": "Cc1ccc([C@H](CC(=O)O)c2cc(OC(F)F)c3c(c2)nnn3C)cc1CN1C[C@H]2CCCN2c2ncccc2S1(=O)=O", "note": "(single isomer, unassigned) [Example 247, (*S)-3-(7-(Difluoromethoxy)-1-methyl-1H-benzo[d][1,2,3]triazol-5-yl)-3-(3-(((R)-5,5-dioxido-7a,8,9,10-tetrahydropyrido[2,3-f]pyrrolo[2,1-d][1,2,5]thiadiazepin-6(7H)-yl)methyl)-4-methylphenyl)propanoic acid]", "EC50": 225},
      {"compound": "Cc1cnc2c(c1)S(=O)(=O)N(Cc1cc([C@H](c3ccn4c(C(F)(F)F)nnc4c3C)C(C)(C)C(=O)O)cnc1C)CC1(CC1)O2", "note": "(single isomer, unassigned) [Example 573, (*S)-2,2-Dimethyl-3-(8-methyl-3-(trifluoromethyl)-[1,2,4]triazolo[4,3-a]pyridin-7-yl)-3-(6-methyl-5-((8′-methyl-1′,1′-dioxidospiro[cyclopropane-1,4′-pyrido[2,3-b][1,4,5]oxathiazepin]-2′(3′H)-yl)methyl)pyridin-3-yl)propanoic acid]", "EC50": 321},
      {"compound": "Cc1cnc2c(c1)S(=O)(=O)N(Cc1cc(C(c3ccn4c(C(F)(F)F)nnc4c3C)C(C)(C)C(=O)O)cnc1C)CC1(CC1)O2", "note": "(single isomer, unassigned) [Example 574, (*R)-2,2-Dimethyl-3-(8-methyl-3-(trifluoromethyl)-[1,2,4]triazolo[4,3-a]pyridin-7-yl)-3-(6-methyl-5-((8′-methyl-1′,1′-dioxidospiro[cyclopropane-1,4′-pyrido[2,3-b][1,4,5]oxathiazepin]-2′(3′H)-yl)methyl)pyridin-3-yl)propanoic acid]", "EC50": 14600},
      {"compound": "Cc1ccc(C(c2ccn3c(C(F)(F)F)nnc3c2C)C(C)C(=O)O)cc1CN1C[C@@H]2CCCCN2c2ncccc2S1(=O)=O", "note": "(stereo in doubt) [Example 129, 3-(3-(((*S)-5,5-Dioxido-7,7a,8,9,10,11-hexahydro-6H-dipyrido[2,1-d:2′,3′-f][1,2,5]thiadiazepin-6-yl)methyl)-4-methylphenyl)-2-methyl-3-(8-methyl-3-(trifluoromethyl)-[1,2,4]triazolo[4,3-a]pyridine-7-yl)propanoic acid]", "EC50": 6.8}
    ]}
  ]
}
